Source: paper PMC2774465 (Journal of natural products, 2008)
≈ marks a conversion by molar mass, not a printed value. Like-named read-outs stand apart in the source and are kept apart here.

Columns and labels:
[1] = tested on: L. donovani amastigotes (LD-1S/MHOM/SD/00-strain 1S); assay type: cell-based; details: Leishmania donovani, read-out: IC50 L. donovani
Plasmodium falciparum = experiment: Malaria bioassay; assay type: cell-based
Trypanasoma cruzi = experiment: Chagas disease bioassay; assay type: cell-based, T. cruzi; details: Trypanosoma cruzi
Leishmania = details: cited from earlier work

| Structure (SMILES) | IC50 (Plasmodium falciparum; read-out: IC50 P. falciparum) | IC50 (Trypanasoma cruzi; read-out: IC50 T. cruzi) | other results |
| --- | --- | --- | --- |
| C[C@@H]1[C@H](O)[C@@H](C)/C=C/C=C/C=C/C=C/C=C/C=C/C=C/[C@H](O[C@@H]2O[C@H](C)[C@@H](O)[C@H](N)[C@@H]2O)C[C@@H]2O[C@](O)(C[C@@H](O)C[C@@H](O)[C@H](O)CC[C@@H](O)C[C@@H](O)CC(=O)O[C@H]1C)C[C@H](O)[C@H]2C(=O)O [amphotericin B] | – | – | IC50 [1]: 90 nM |
| O=C1C=CC(=O)C2=C1[C@@H](O)CCC21Oc2cccc3cccc(c23)O1 [Compound 4, 4(S)-hydroxy-2,3-dihydro-2(H)-spiro[naphthalene-1(4H),2'-naphtho[1,8-de][1,3]dioxin]-5,8-dione] | > 10 µg/mL | > 10 µg/mL | – |
| COc1cc(OC)c(-c2c(C)cc3cccc(OC)c3c2O)c2c1C(C)=N[C@@H](C)C2 [ancistrotanzanine A] | – | – | antileishmanial activity IC50 (Leishmania): 1.8 µg/mL |
| Oc1cccc2c1[C@@H](O)CCC21Oc2cccc3cccc(c23)O1 [Compound 5, CJ-12,371] | > 10 µg/mL | – | – |
| CC1CS(=O)(=O)CCN1/N=C/c1ccc([N+](=O)[O-])o1 (stereo not drawn) [nifurtimox, reference compound] | – | – | IC50 (Trypanasoma cruzi; read-out: IC50 (positive control, Chagas disease bioassay)): 3 to 5 µg/mL (≈ 10.4 to 17.4 µM) |
| CCN(CC)CCCC(C)Nc1ccnc2cc(Cl)ccc12 (stereo not drawn) [chloroquine, reference compound] | – | – | IC50 (Plasmodium falciparum; read-out: IC50 (positive control, malaria bioassay)): 80 to 100 nM |
| COc1cc(OC)c(-c2ccc(OC)c3c(OC)cc(C)cc23)c2c1C(C)=N[C@@H](C)C2 [ancistrotanzanine B] | – | – | antileishmanial activity IC50 (Leishmania): 1.6 µg/mL |
| O=C1CCC2(Oc3cccc4cccc(c34)O2)c2cccc(O)c21 [Compound 2, palmarumycin CP2] | > 10 µg/mL | – | – |
| O=C1C=C[C@]23Oc4ccc(O)c5c4[C@](CCC5=O)(Oc4cccc1c42)O3 [Compound 1, preussomerin EG1] | – | > 10 µg/mL | – |
| O=C1CCC2(Oc3cccc4cccc(c34)O2)c2c(O)ccc(O)c21 [Compound 3, palmarumycin CP17] | > 10 µg/mL | > 10 µg/mL | – |
